Assay results: patent US7939541B2, “Intermediates and a process employing the intermediates for the preparation of (3-trifluoromethylsulfonyl)-N-[4-methyl-3-(4-pyridin-3yl-pyrimidin-2ylamino)-phenyl]-benzamide” (Natco Pharma Limited, priority 2004, dated 2011)

What was measured:
[1] = test system: Baf3 murine leukemia cells T315I; test: Blast cell count in nude mice implanted with Baf3 T315I cells; type: in vivo; settings: Baf3T315I; Imatinib 10 mg/kg, AN019 20 mg/kg, AN024 20 mg/kg, oral gavage or ip from day 15; day 42
Description: Blood smears were obtained via the tail vein or via the femoral vein every 6th day and blast cells counted and graphically represented.
Abdominal swelling and decrease in activity was monitored daily, blood smear taken via the tail vein or the femoral vein every 6th day and H&E stained as per standard protocols. 42 days after implantation, mice were sacrificed and spleens harvested.
Blood from tail vein or the femoral vein was taken every 6th day from Baf3 cell implanted mice until day 42.
Nude mice were intraperitoneally implanted with Baf3 mutant cells (wt, T315I, M351T or E255K). […] Blood was drawn from the femoral vein or tail vein every 6th day and blast cell count determined and graphically represented.

[2] = test system: K562luc cells; test: Determination of drug temporal penetrance (Tp); type: in vivo, nude mice; settings: daily ip from day 15 to day 35, imaged till day 45; AN019 20 mg/kg, AN024 20 mg/kg, Imatinib 10 mg/kg
Experimental: The temporal penetrance was calculated applying the following equation, […].
P=photon counts at day ‘a’, day ‘ter’, or day ‘b’ where ‘a’ is the day when drug treatment was stopped and ‘ter’ is the day when the experiment was terminated and ‘b’ is the day where P is minimum after day a but before day ‘ter’.
n=number of animals alive when P was measured.
The animals were imaged at 6 day intervals post transplantation. […] Drug treatment was stopped on day 35 and animals were imaged till day 45, and calculated as described in methods.

[3] = test system: 4910 glioma cells; test: In vitro angiogenic assay, 4910 conditioned media on human dermal endothelial cells; type: cell-based; settings: 4910 cells, with radiation
Experimental: The in vitro angiogenesis of 4910, 5310 and U87 glioma cells and MDAMB231 and ZR71 breast cancer cells in the presence of specified concentrations of compounds were determined as follows, cells (2×10^4/well) were seeded in 8-well chamber slides and were treated with various concentrations of test compounds. After a 24 h incubation period, the conditioned media was removed and added to a 4×10^4 human dermal endothelial cell (monolayer in 8-well chamber slides) and the human dermal endothelial cells were allowed to grow for 72 h. Cells were then fixed in 3.7% formaldehyde and stained with H&E and photographed.

[4] = test system: AKT, ERK and Pi3k in 4910 glioma cells; test: Western blot analysis, 4910; type: cell-based, human; settings: 24 h
Experimental: Western blot analysis of 4910, 5310 and U87 glioma cells and MDAMB231 and ZR71 breast cancer cells in the presence of specified concentrations of compounds were assessed as per standard protocols. Cells were treated with AN019, AN024 or Temozolomide at the specified concentrations. 24 h after treatment, cells were collected and cell lysates extracted. Equal quantities of proteins were fractionated by SDS-PAGE. The fractionated proteins were blotted on to nylon membranes and immunoprobed for AKT, ERK and Pi3k. Breast cancer cell protein isolates were additionally immunoprobed for EGFR, ErbB1, ErbB2 and ErbB3.

[5] = in vivo; settings: mouse

Cc1ccc(NC(=O)c2cccc(S(=O)(=O)C(F)(F)F)c2)cc1Nc1nccc(-c2cccnc2)n1 [AN024, (3-trifluoromethylsulfonyl)-N-[4-methyl-3-(4-pyridin-3yl-pyrimidin-2ylamino)-phenyl]-benzamide]
blast cell count in blood smears [1]: significant decrease in blast cell count
temporal penetrance (Tp) [2]: 2.4
inhibition of angiogenesis [3]: significant inhibition of angiogenesis
AKT levels ([4]; 4910, after radiation): decrease in AKT levels was enhanced after radiation
AKT levels ([4]; 4910, without radiation): decrease in AKT levels
MTD [5]: 500 mg/kg
LD50 ([5]; po): 1440 mg/kg
